# Reference: ChEMBL document CHEMBL1133739, “Fenchylamine sulfonamide inhibitors of amyloid beta peptide production by the gamma-secretase proteolytic pathway: potential small-molecule therapeutic agents for the treatment of Alzheimer's disease” (J Med Chem, 2000)
# Target: Amyloid-beta precursor protein (Homo sapiens) (UniProt P05067)
# Experiment: Observed stimulation of the production of soluble beta-amyloid precursor protein
# Assay type: functional
# Amyloid-beta precursor protein (Homo sapiens), sequence (P05067 whole entry): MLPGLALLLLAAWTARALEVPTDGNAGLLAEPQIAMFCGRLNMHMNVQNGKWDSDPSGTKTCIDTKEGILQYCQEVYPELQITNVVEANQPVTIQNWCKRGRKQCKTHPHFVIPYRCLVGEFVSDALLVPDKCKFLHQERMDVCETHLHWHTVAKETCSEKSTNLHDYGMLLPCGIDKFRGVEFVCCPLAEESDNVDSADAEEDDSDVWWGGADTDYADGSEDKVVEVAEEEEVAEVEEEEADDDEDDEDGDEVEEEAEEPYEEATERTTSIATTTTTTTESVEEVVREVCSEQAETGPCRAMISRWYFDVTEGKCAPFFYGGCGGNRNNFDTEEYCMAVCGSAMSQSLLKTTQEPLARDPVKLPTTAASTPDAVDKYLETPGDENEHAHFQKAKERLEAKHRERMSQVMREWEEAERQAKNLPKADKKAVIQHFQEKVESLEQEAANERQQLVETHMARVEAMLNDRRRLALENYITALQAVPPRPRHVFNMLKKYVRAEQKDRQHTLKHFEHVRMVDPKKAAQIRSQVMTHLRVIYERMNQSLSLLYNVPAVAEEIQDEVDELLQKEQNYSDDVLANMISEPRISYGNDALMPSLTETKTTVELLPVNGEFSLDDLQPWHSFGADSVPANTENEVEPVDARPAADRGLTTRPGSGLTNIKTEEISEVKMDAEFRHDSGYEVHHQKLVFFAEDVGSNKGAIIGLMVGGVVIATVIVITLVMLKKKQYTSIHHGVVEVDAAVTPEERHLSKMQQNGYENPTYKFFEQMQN
row,SMILES,Stimulation [%]
1,CC12CC[C@@H](C1)C(C)(C)[C@@H]2NS(=O)(=O)c1cccs1,32
2,CC12CC[C@@H](C1)C(C)(C)[C@@H]2NS(=O)(=O)c1ccc(Cl)cc1,0
3,CC12CCC(C1)C(C)(C)C2NS(=O)(=O)c1ccc(F)cc1 (stereo not drawn),20
4,"CC12CC[C@@H](C1)C(C)(C)[C@@H]2NS(=O)(=O)c1ccc(F)cc1 (single isomer, unassigned; (+))",23
5,CC12CC[C@@H](C1)C(C)(C)[C@@H]2NS(=O)(=O)c1ccc(Br)cc1,0

# Target: Amyloid-beta precursor protein (Homo sapiens) (UniProt P05067)
# Experiment: Inhibition of A-beta-42 production by inhibiting Gamma-secretase proteolytic pathway in HEK293 cell stably transfected with a double mutant form of human APP(K595N/M596L), at 2.5 uM concentration
# Assay type: cell-based
row,SMILES,inhibition [%]
1,CC12CC[C@@H](C1)C(C)(C)[C@@H]2NS(=O)(=O)c1cccs1,47
2,CC12CC[C@@H](C1)C(C)(C)[C@H]2NS(=O)(=O)c1ccc(F)cc1,0
3,CC1(C)[C@H]2CC[C@](C)(C2)[C@H]1NS(=O)(=O)c1ccc(F)cc1,19
4,CC12CC[C@@H](C1)C(C)(C)[C@@H]2NS(=O)(=O)c1ccc(Cl)cc1,26
5,CC12CCC(C1)C(C)(C)C2NS(=O)(=O)c1ccc(F)cc1 (stereo not drawn),31
6,"CC12CC[C@@H](C1)C(C)(C)[C@@H]2NS(=O)(=O)c1ccc(F)cc1 (single isomer, unassigned; (+))",58
7,CC12CC[C@@H](C1)C(C)(C)[C@@H]2NS(=O)(=O)c1ccc(Br)cc1,24
8,CC1(C)[C@@H]2CC[C@@](C)(C2)[C@H]1NS(=O)(=O)c1ccc(F)cc1,0
